# ChEMBL document CHEMBL4334533, “Design, synthesis, and validation of novel nitrogen-based chalcone analogs against triple negative breast cancer” (Eur J Med Chem, 2020)
# pIC50: −log10 of the molar value. Active and inactive are the calls of the source. The rule behind the calls is not given here.
# Tests used:
# MDA-MB-231 [1] = experiment: Induction of morphological changes in human MDA-MB-231 cells assessed as mesenchymal-epithelial transition at 10 uM by inverted microscopic analysis; type: functional, cell-based
# MDA-MB-231 [2] = experiment: Inhibition of tumor growth in human MDA-MB-231 cells xenografted in nude mouse; type: functional
# MDA-MB-231 [3] = experiment: Growth inhibition in human MDA-MB-231 cells at 10 uM after 48 hrs by MTT assay; type: functional, cell-based
# [4] = Selectivity index, ratio of LD50 for E6/E7 immortalized human HNME cells to IC50 for human MDA-MB-468 cells
# MDA-MB-231 [5] = experiment: Cell cycle arrest in human MDA-MB-231 cells assessed as accumulation at G2/M phase at 5 uM measured after 48 hrs by propidium iodide staining-based flow cytometric analysis relative to control; type: functional
# MCF7 [6] = experiment: Induction of morphological changes in human MCF7 cells assessed as mesenchymal-epithelial transition at 10 uM by inverted microscopic analysis; type: functional, cell-based
# [7] = Cytotoxicity against E6/E7 immortalized human HNME cells assessed as inhibition of cell growth measured after 48 hrs by microplate reader analysis; type: cell-based; conditions: read-out: LD50
# [8] = Toxicity in athymic nude mouse xenografted with human MDA-MB-231 cells assessed as change in food intake at 10 mg/kg, ip administered measured for 14 days; type: organism-based; conditions: in vivo, 336 h
# [9] = Toxicity in athymic nude mouse xenografted with human MDA-MB-231 cells assessed as effect on survival rate at 10 mg/kg, ip dosed 5 times per week preincubated for 15 days measured after 30 days; type: organism-based; conditions: in vivo, 720 h
# MCF7 [10] = experiment: Growth inhibition in human MCF7 cells at 10 uM after 48 hrs by MTT assay; type: functional, cell-based
# MCF7 [11] = experiment: Up regulation of pan-cadherin level in human MCF7 cells up to 10 uM by Western blot analysis; type: functional, cell-based
# MDA-MB-468 [12] = experiment: Induction of apoptosis in human MDA-MB-468 cells assessed as necrotic cells at 8 uM measured after 48 hrs by AnnexinV/7-AAD staining based flow cytometric analysis (reference value: 0.51%); type: functional
# MDA-MB-468 [13] = experiment: Induction of apoptosis in human MDA-MB-468 cells assessed as viable cells at 8 uM measured after 48 hrs by AnnexinV/7-AAD staining based flow cytometric analysis (reference value: 92.5%); type: functional; conditions: MDA-MB-468, 48 h, read-out: Activity
# MCF7 [14] = experiment: Antimigratory activity in human MCF7 cells assessed as inhibition of cell motility after 24 hrs by microscopic analysis; type: functional, cell-based; conditions: MCF7, 24 h
# MDA-MB-468 [15] = experiment: Cell cycle arrest in human MDA-MB-468 cells assessed as accumulation at G2/M phase at 5 uM measured after 48 hrs by propidium iodide staining-based flow cytometric analysis relative to control; type: functional
# MDA-MB-468 [16] = experiment: Induction of apoptosis in human MDA-MB-468 cells assessed as increase in BAX/Bcl2 expression ratio upto 10 uM measured after 48 hrs by western blot analysis; type: functional, cell-based
# MCF7 [17] = experiment: Induction of apoptosis in human MCF7 cells assessed as increase in BAX/Bcl2 expression ratio upto 10 uM measured after 48 hrs by western blot analysis; type: functional, cell-based
# MDA-MB-231 [18] = experiment: Antitumor activity against human MDA-MB-231 cells xenografted in athymic nude mouse assessed as time delay in tumor growth at 10 mg/kg, ip dosed 5 times per week preincubated for 15 days measured after 30 days relative to control; type: functional, organism-based
# MDA-MB-231 [19] = experiment: Inhibition of anchorage-independent colony formation in human MDA-MB-231 cells at 5 uM measured upto 21 days by soft agar colony formation assay; type: functional, cell-based
# MDA-MB-231 [20] = experiment: Antitumor activity against human MDA-MB-231 cells xenografted in athymic nude mouse assessed as the reduction in tumor weight at 10 mg/kg, ip dosed 3 times per week for 45 days (reference value: 1.58 +/- 0.283 g); type: functional
# MDA-MB-231 [21] = experiment: Antitumor activity against human MDA-MB-231 cells xenografted in athymic nude mouse assessed as the reduction in tumor volume at 10 mg/kg, ip dosed 3 times per week for 45 days (reference value: 1350 mm3); type: functional
# Chorioallantoic membrane = experiment: Antiangiogenic activity in Leghorn chicken fertilized egg chorioallantoic membrane assessed as reduction in number of blood vessels at 4 ug measured after 4 days by microscopic analysis relative to control; type: functional, tissue-based; design: scale not given: the % may be the effect or the level left; conditions: Gallus gallus
# MDA-MB-231 [22] = experiment: Up regulation of E-cadherin level in human MDA-MB-231 cells up to 10 uM by Western blot analysis; type: functional, cell-based
# MDA-MB-231 [23] = experiment: Antimigratory activity in human MDA-MB-231 cells assessed as wound diameter measured after 24 hrs by microscopic analysis (reference value: 29.5 +/- 1.95%); type: functional
# MDA-MB-468 [24] = experiment: Induction of morphological changes in human MDA-MB-468 cells assessed as mesenchymal-epithelial transition at 10 uM by inverted microscopic analysis; type: functional, cell-based
# MDA-MB-468 [25] = experiment: Induction of apoptosis in human MDA-MB-468 cells assessed as late apoptotic cells at 8 uM measured after 48 hrs by AnnexinV/7-AAD staining based flow cytometric analysis (reference value: 2.83%); type: functional
# MDA-MB-468 [26] = experiment: Induction of apoptosis in human MDA-MB-468 cells assessed as late apoptotic cells at 8 uM measured after 24 hrs by AnnexinV/7-AAD staining based flow cytometric analysis (reference value: 1.86%); type: functional
# MCF7 [27] = experiment: Antiproliferative activity against human MCF7 cells assessed as inhibition of cell growth measured after 48 hrs by microplate reader analysis; type: functional, cell-based; conditions: MCF7, 48 h
# MDA-MB-231 [28] = experiment: Antimigratory activity in human MDA-MB-231 cells assessed as inhibition of cell motility after 24 hrs by microscopic analysis; type: functional, cell-based; conditions: MDA-MB-231, 24 h
# MDA-MB-468 [29] = experiment: Induction of apoptosis in human MDA-MB-468 cells assessed as early apoptotic cells at 8 uM measured after 24 hrs by AnnexinV/7-AAD staining based flow cytometric analysis (reference value: 3.45%); type: functional
# MDA-MB-231 [30] = experiment: Up regulation of pan-cadherin level in human MDA-MB-231 cells up to 10 uM by Western blot analysis; type: functional, cell-based
# MCF7 [31] = experiment: Inhibition of anchorage-independent colony formation in human MCF7 cells at 5 uM measured upto 21 days by soft agar colony formation assay; type: functional, cell-based
# MDA-MB-468 [32] = experiment: Antiproliferative activity against human MDA-MB-468 cells assessed as inhibition of cell growth measured after 48 hrs by microplate reader analysis; type: functional, cell-based; conditions: MDA-MB-468, 48 h
# MDA-MB-468 [33] = experiment: Induction of apoptosis in human MDA-MB-468 cells assessed as necrotic cells at 8 uM measured after 24 hrs by AnnexinV/7-AAD staining based flow cytometric analysis (reference value: 0.62%); type: functional
# [34] = Toxicity in athymic nude mouse xenografted with human MDA-MB-231 cells assessed as behavioral change at 10 mg/kg, ip administered for 14 days; type: organism-based; conditions: in vivo, 336 h
# [35] = Selectivity index, ratio of LD50 for E6/E7 immortalized human HNME cells to IC50 for human MCF7 cells
# MDA-MB-468 [36] = experiment: Inhibition of anchorage-independent colony formation in human MDA-MB-468 cells at 5 uM measured upto 21 days by soft agar colony formation assay; type: functional, cell-based
# MCF7 [37] = experiment: Antiinvasive activity in human MCF7 cells assessed as reduction in 10% FBS-induced cell invasion at 5 uM by crystal violet staining based matrigel assay relative to control; type: functional
# MCF7 [38] = experiment: Up regulation of E-cadherin level in human MCF7 cells up to 10 uM by Western blot analysis; type: functional, cell-based
# [39] = Selectivity index, ratio of LD50 for E6/E7 immortalized human HNME cells to IC50 for human MDA-MB-231 cells
# MDA-MB-231 [40] = experiment: Antitumor activity against human MDA-MB-231 cells xenografted in athymic nude mouse assessed as the inhibition of tumor growth at 10 mg/kg, ip dosed 3 times per week for 45 days relative to control; type: functional; conditions: MDA-MB-231, ip, 1080 h
# MDA-MB-468 [41] = experiment: Antiinvasive activity in human MDA-MB-468 cells assessed as reduction in 10% FBS-induced cell invasion at 5 uM by crystal violet staining based matrigel assay relative to control; type: functional
# MDA-MB-468 [42] = experiment: Induction of apoptosis in human MDA-MB-468 cells assessed as early apoptotic cells at 8 uM measured after 48 hrs by AnnexinV/7-AAD staining based flow cytometric analysis (reference value: 4.15%); type: functional
# MDA-MB-468 [43] = experiment: Induction of apoptosis in human MDA-MB-468 cells assessed as viable cells at 8 uM measured after 24 hrs by AnnexinV/7-AAD staining based flow cytometric analysis (reference value: 94.1%); type: functional; conditions: MDA-MB-468, 24 h, read-out: Activity
# MDA-MB-231 [44] = experiment: Antimigratory activity in human MDA-MB-231 cells assessed as wound diameter at 5 uM measured after 24 hrs by microscopic analysis; type: functional, cell-based
# MDA-MB-231 [45] = experiment: Antiinvasive activity in human MDA-MB-231 cells assessed as reduction in 10% FBS-induced cell invasion at 5 uM by crystal violet staining based matrigel assay relative to control; type: functional; design: scale not given: the % may be the effect or the level left
# MDA-MB-231 [46] = experiment: Down regulation of FAK level in human MDA-MB-231 cells up to 10 uM by Western blot analysis; type: functional, cell-based
# MDA-MB-231 [47] = experiment: Antiproliferative activity against human MDA-MB-231 cells assessed as inhibition of cell growth measured after 48 hrs by microplate reader analysis; type: functional, cell-based; conditions: MDA-MB-231, 48 h
# [48] = Toxicity in athymic nude mouse xenografted with human MDA-MB-231 cells assessed as change in body weight at 10 mg/kg, ip administered for 14 days; type: organism-based; conditions: in vivo, 336 h
structure (smiles),measurement,setting,value
COc1cccc(C(=O)/C=C/c2ccc(N(CCCl)CCCl)cc2)c1,Activity,MDA-MB-231 [1],Active
same,inhibition (INH),MDA-MB-231 [2],57%
same,growth inhibition (GI),MDA-MB-231 [3],Active
same,Ratio LD50/IC50,[4],2.92
same,Activity,MDA-MB-231 [5],47.27%
same,Activity,MCF7 [6],Active
same,CC50 at 48 h,[7],21.3 µM
same,Activity,[8],Non-Toxic
same,Activity,[9],Non-Toxic
same,growth inhibition (GI),MCF7 [10],Active
same,Activity,MCF7 [11],Active
same,Activity,MDA-MB-468 [12],3.63%
same,viability at 8 µM,MDA-MB-468 [13],57.3%
same,pIC50,MCF7 [14],5.61
same,Activity,MDA-MB-468 [15],66.45%
same,Activity,MDA-MB-468 [16],Active
same,Activity,MCF7 [17],Active
same,Activity,MDA-MB-231 [18],Active
same,inhibition,MDA-MB-231 [19],Active
same,Activity,MDA-MB-231 [20],0.88 g
same,Activity,MDA-MB-231 [21],487.26 mm3
same,Activity,Chorioallantoic membrane,60.2%
same,Activity,MDA-MB-231 [22],Active
same,inhibition (INH),MDA-MB-231 [23],67.89%
same,Activity,MDA-MB-468 [24],Active
same,Activity,MDA-MB-468 [25],11.1%
same,Activity,MDA-MB-468 [26],2.13%
same,pIC50,MCF7 [27],5.19
same,pIC50,MDA-MB-231 [28],5.52
same,Activity,MDA-MB-468 [29],9.04%
same,Activity,MDA-MB-231 [30],Active
same,colony formation inhibition (activity call),MCF7 [31],Active
same,pIC50,MDA-MB-468 [32],5.14
same,Activity,MDA-MB-468 [33],0.61%
same,Activity,[34],Non-Toxic
same,Ratio LD50/IC50,[35],3.31
same,colony formation inhibition (active/inactive),MDA-MB-468 [36],Active
same,Activity,MCF7 [37],Active
same,Activity,MCF7 [38],Active
same,Ratio LD50/IC50,[39],2.66
same,inhibition in vivo at 10 mg/kg,MDA-MB-231 [40],46.4%
same,Activity,MDA-MB-468 [41],Active
same,Activity,MDA-MB-468 [42],28%
same,viability at 8 µM,MDA-MB-468 [43],88.2%
same,Activity,MDA-MB-231 [44],Active
same,Activity,MDA-MB-231 [45],80%
same,Activity,MDA-MB-231 [46],Active
same,pIC50,MDA-MB-231 [47],5.10
same,Activity,[48],Non-Toxic
COc1ccccc1C(=O)/C=C/c1ccc(N(CCCl)CCCl)cc1,pIC50,MDA-MB-231 [28],5.54
same,Activity,MDA-MB-231 [44],Active
